Measured values as given in article PMC11378298 (ACS Chemical Neuroscience, 2024).
“And” between values parts separate entries of the source, which are not always exact repeats. Identical values can stand only once.

Tests used:
GSK-3β = GSK-3β (Homo sapiens, UniProt P49841); assay: biochemical; conditions: read-out: increase of the melting point of the protein
Description: We evaluated the pharmacological properties of the compounds in vitro against GSK-3β using the GSK-3β Kinase Enzyme System followed by ADP-Glo bioluminescent assay.[50] The principle of the assay is to determine the amount of ADP formed from ATP in the kinase reaction. […] Additionally, compounds 11 and 36 in complex with GSK-3β were analyzed by the proteins’ melting temperature determination using Thermal Shift Assay (see Figure S1 in the SI).

[1] = Cytotoxicity in HT-22 cells (PrestoBlue); conditions: mouse, HT-22 hippocampal neuronal cells
Description: (§1) The compounds were tested at 5 concentrations (0.1, 1, 10, 50, and 100 μM).
Mouse Hippocampal Neuronal Cell Line (HT-22) was a generous gift from Dr Bartosz Pomierny of the Department of Biochemical Toxicology, Jagiellonian University Medical College, Krakow, Poland. Cells were cultured in Dulbecco’s modified Eagle’s Medium—high glucose (DMEM, Glutamax Thermo Fisher) supplemented with 10% heat-inactivated fetal bovine serum (Thermo Fisher), 100 IU/mL penicillin (Merck) and 100 μg/mL streptomycin (Merck). Cells were cultured in flasks (area 175 cm^2, Nunc), and incubated at 37 °C, 5% CO2. For the measurement of cell viability and neuroprotective effect against okadaic acid cells were placed in a 96-well culture plate (2 × 10^4 cells per well, Falcon). Before the tests, cells were grown for 24 h in the incubator (37 °C, 5% CO2).
(§2) Cell viability was evaluated using the PrestoBlue reagent (ThermoFisher), according to the manufacturer’s procedures.[87] Following 24 h of incubation with the tested molecule, PrestoBlue reagent was added to a microplate well in an amount equal to one-tenth of the remaining medium volume. The resulting mixture was incubated for 15 min at 37 °C, and the fluorescence intensity (EX 530 nm; EM 580 nm) was measured in the plate reader POLARstar Omega, (BMG Labtech).

[2] = Cytotoxicity in BV-2 cells (PrestoBlue); conditions: mouse, BV-2 microglial cells
Description: as §1
Mouse microglial cells (BV-2) were a generous gift from Professor Bozena Kaminska-Kaczmarek of the Laboratory of Molecular Neurobiology, Neurobiology Center, Nencki Institute of Experimental Biology, Polish Academy of Sciences, Warsaw, Poland. Cells were cultured in Dulbecco’s modified Eagle’s Medium-high glucose (DMEM, Glutamax Thermo Fisher) supplemented with 10% heat-inactivated fetal bovine serum (Thermo Fisher), 100 IU/mL penicillin (Merck) and 100 μg/mL streptomycin (Merck). Cells were cultured in flasks (area 175 cm^2, Nunc), and incubated at 37 °C, 5% CO2. To evaluate the level of NO, IL-6, and TNF-α and the effectiveness of the compounds tested, BV-2 microglia cells were cultured in a 96-well culture plate (5 × 10^4 cells per well, Falcon). For the measurement of cell viability and cell membrane damage, cells were placed in a 96-well culture plate (2 × 10^4 cells per well, Falcon). Before the tests, cells were grown for 24 h in the incubator (37 °C, 5% CO2).
as §2

HT-22 cells = assay: Okadaic acid-induced hyperphosphorylation model, cell viability; type: cell-based, mouse; conditions: for increase in cells' viability after okadaic acid: okadaic acid 400 nM 3 h, viability after 24 h
Description: Thus, it is used in a cell model of hyperphosphorylated tau-induced neurodegeneration.[53],[54] […] The test was performed on the HT-22 cell line treated with okadaic acid at the concentration of 400 nM and the compounds at the concentration of 0.1, 1, and 10 μM. Cell viability was measured by the PrestoBlue cell viability reagent.
Cell viability was determined by Presto Blue assay after 24 h. (B) Effect of compounds 11, 34, and 36 (0.1, 1, 10 μM) on NO-release (%) in LPS-treated (100 ng/mL) BV-2 cell line. NO-release was measured using a fluorometric assay with 2,3-diaminonaphthalene (DAN). (C, D) Effects of compounds 11 and 36 (0.1, 1, 10 μM) on IL-6 and TNF-α release in LPS-treated (100 ng/mL) BV-2 cell line. The IL-6 and TNF-α levels were measured using LANCE Ultra TR-FRET Detection Kit (PerkinElmer). Statistical analysis was performed using GraphPad Prism 9.0.0. All values are expressed as mean with SD. Differences among groups were evaluated by one-way ANOVA followed by posthoc analysis (Dunnett’s multiple comparison tests) vs. control group (LPS on BV-2 cells and okadaic acid on HT-22 cells) and were considered statistically significant if p < 0.05 (*p < 0.05, **p < 0.01, ***p < 0.001, and ****p < 0.0001).
HT-22 cells were treated with okadaic acid (Merck): 400 nM for 3 h. After this time, the 10, 1, and 0.1 μM of tested compounds or DMSO were added and incubated in the aseptic condition (37 °C, 5% CO2). Cell viability was determined by Presto Blue assay after 24 h.

[3] = human liver microsomes; for % of the compound remaining after 2 h of incubation: 2 h (120 min), 37 °C
Description: The primary site of drug metabolism in humans is the liver. Therefore, we used human liver microsomes (HLM) to determine the metabolic stability of selected compounds (Table 3). The compounds were incubated with HLMs for 2 h, and the resulting mixtures were analyzed with UPLC-MS (for details including the UPLC-MS spectra, see Table S10 and Figures S17–S22 in the SI).
All protocols used for the evaluation of drug-like properties (ADME-To parameters) were described in our previous works.[58],[89] Precoated PAMPA Plate System Gentest was obtained from Corning, (Tewksbury, MA, USA). The metabolic stability assay was performed on human liver microsomes (HLMs, Sigma-Aldrich, St. Louis, MO, USA). The assays with microsomes were supported by MetaSite 6.0.1 software (Molecular Discovery Ltd. Hertfordshire, UK). To predict potential drug–drug interactions (DDIs) the influence on CYP3A4, CYP2D6, and CYP2C9 were carried with use of respective P450-Glo kit (Promega, Madison, WI, USA). The luminescence signal and absorbance were measured by using a microplate reader EnSpire PerkinElmer (Waltham, MA, USA). The LC/MS/MS analyses used in PAMPA and the assays with use of HLMs were obtained on Waters ACQUITY TQD system (Waters, Milford, CT, USA). […] Statistical significances and IC50 values were calculated by Graph Pad Prism 9 software.
Table S9. Differences in binding energies given for methods in gas and water environment.
Method gas [kcal/mol] water [kcal/mol]
Metabolic stability of compounds 11 and 36 in human liver microsomes (HLMs)
Table S10. The molecular masses and metabolic pathways of compounds 11 and 36 determined using human liver microsomes.
Substrate mass % mass of the Metabolic pathway*
(m/z) remaining metabolite
*most probable metabolic pathways were estimated by MS analyses supported by in silico prediction using MetaSite 6.0.1 and ADMET Predictor tools
Figure S17. The MetaSite 6.0.1. software prediction of the most probabl e sites of compounds’ 11 and 36 metabolism. The darker the red color - the higher the probability of being involved […]

in vitro = conditions: PAMPA

Chain of GSK-3β (P49841 26-383): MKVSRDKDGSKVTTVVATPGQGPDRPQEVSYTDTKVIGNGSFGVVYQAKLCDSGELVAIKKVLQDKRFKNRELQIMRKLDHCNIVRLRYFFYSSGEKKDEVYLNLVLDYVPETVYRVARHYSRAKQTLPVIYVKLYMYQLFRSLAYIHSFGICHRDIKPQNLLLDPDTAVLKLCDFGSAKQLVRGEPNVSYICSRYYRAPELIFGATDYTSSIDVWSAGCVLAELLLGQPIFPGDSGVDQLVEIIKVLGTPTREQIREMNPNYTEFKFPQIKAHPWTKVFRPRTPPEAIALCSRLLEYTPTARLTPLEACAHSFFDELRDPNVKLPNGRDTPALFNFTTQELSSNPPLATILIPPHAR

For `NC(=O)N1CC=C(c2ccnc(NC(=O)C3CC3)c2)C1` [Compound 11, 3-(2-(Cyclopropanecarboxamido)pyridin-4-yl)-2,5-dihydro-1H-pyrrole-1-carboxamide], the ΔTm at 10 µM (GSK-3β) was 13 °C, the IC50 at 24 h [1] was 45.8 ± 9.7 µM and the IC50 at 24 h [2] was 23.4 ± 1.7 µM. The “increase in cells' viability after okadaic acid” value (from here on “increase in cells' viability”) (HT-22 cells; compound 1 μM) was “statistically significant effect”, the “increase in cells' viability” value (HT-22 cells; compound 10 μM) was “statistically significant effect” and the “% of the compound remaining after 2 h of incubation” value [3] was 100%. The Papp (in vitro) was 0.53 ± 0.82 ×10⁻⁶ cm/s.

In the case of `O=C(Nc1cc(-c2ccc(-c3ncon3)s2)ccn1)C1CC1` [Compound 36, N-(4-(5-(1,2,4-Oxadiazol-3-yl)thiophen-2-yl)pyridin-2-yl)cyclopropanecarboxamide], the ΔTm at 10 µM (GSK-3β) is reported as 14 °C, the IC50 at 24 h [1] is reported as over 100 µM and the IC50 at 24 h [2] is reported as 89.3 ± 4.9 µM. The “increase in cells' viability” value (HT-22 cells; compound 10 μM) was “statistically significant effect”, the “cell viability after okadaic acid treatment” value (HT-22 cells; concentration not stated) was “restored cell viability” and the “% of the compound metabolized” value ([3]; 2 h) was 11%. For the same compound, the “% of the compound remaining after 2 h of incubation” value [3] was 88.61% and 88.6% and the Papp (in vitro) was 9.4 ± 0.89 ×10⁻⁶ cm/s.
